# Source: US10786518B2, “Compositions and methods of treating HIV” (priority 2017, dated 2020)
# Several values for one entry are separate records, joined by “and”; a condition that tells them apart may be missing. Equal entries are not always repeated. Structures can show the parent of a compound that is named as a salt. Where two headings read alike, the source gives them in different places. Marks after values point to notes of the source that are not given here.
# Tests used:
# [1] = clinical; settings: human, po
# [2] = clinical; settings: human
# [3] = Bioequivalence study: plasma pharmacokinetics; settings: single oral dose D/C/F/TAF 800/150/200/10 mg (test), fed, standardized regular breakfast
# [4] = Food-effect bioavailability study: plasma pharmacokinetics; settings: for AUCinf geometric mean ratio (90% CI), fasted (test) vs fed (reference) / AUClast geometric mean ratio (90% CI), fasted (test) vs fed (reference) / Cmax geometric mean ratio (90% CI), fasted (test) vs fed (reference) / t1/2term, mean (SD) / AUCinf, mean (SD) / AUClast, mean (SD) / Cmax, mean (SD): single oral dose D/C/F/TAF 800/150/200/10 mg;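 as to all read-outs here: volunteers randomized to two single-dose treatment sessions separated by a washout of at least 7 days, dosing preceded by an overnight fast of at least 10 h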
# [5] = tested on: HIV-1; settings: n = 102 newly diagnosed treatment-naive patients
# [6] = human, in vivo
# [7] = human, in vivo; remark: listed apart in the source
# [8] = cited from earlier work; for Mean systemic tenofovir exposure: TAF group versus TDF group of the Phase II study
# [9] = administered as D/C/F/TAF, fed = standardized high-fat breakfast
# [10] = fed, standardized high-fat breakfast (reference)
# [11] = subset of 32 treatment-naive HIV-1-infected adults
Compound,"t1/2term, mean [3]","AUCinf lower in fasted compared with fed conditions [4, 9]","AUCinf geometric mean ratio (90% CI), fasted (test) vs fed (reference) [4]","AUClast geometric mean ratio (90% CI), fasted (test) vs fed (reference) [4]","Cmax geometric mean ratio (90% CI), fasted (test) vs fed (reference) [4]","t1/2term, mean (SD) ([4]; fasted (test))","AUCinf, mean (SD) [4, 10]","Cmax, mean (SD) [4, 10]","t1/2term, mean (SD) [4, 10]","Genotypic susceptibility at screening/baseline, patients [5]",AUC(0-inf) ([2]; in vivo),Cmax ([2]; in vivo),AUC(0-t) ([2]; in vivo),Mean systemic tenofovir exposure [8],other results
"CC(C)c1nc(CN(C)C(=O)N[C@@H](CCN2CCOCC2)C(=O)N[C@H](CC[C@H](Cc2ccccc2)NC(=O)OCc2cncs2)Cc2ccccc2)cs1 [COBI, cobicistat]",3.7 h,16%,84.39^k (68.52-103.95)^ %,70.90 (51.13-98.30) %,76.96 (55.70-106.33) %,4.1 (0.9) hours,6258 (2268) ng · h/mL,711 (164) ng/mL,3.9 (0.6) hours,–,–,–,–,–,"Tmax ([1]; plasma): 3 h; AUC(0-inf) ([2]; plasma, oral): 6870 ng·h/mL; AUC(0-t) ([2]; plasma, oral): 6760 ng·h/mL; Cmax ([2]; plasma, oral): 881 ng/mL; Tmax ([2]; plasma, oral): 4 h; AUClast lower in fasted compared with fed conditions [4, 9]: 29%; Cmax lower in fasted compared with fed conditions [4, 9]: 23%; AUClast, mean (SD) [4, 10]: 6168 (2260) ng · h/mL"
"CC(C)CN(C[C@@H](O)[C@H](Cc1ccccc1)NC(=O)O[C@H]1CO[C@H]2OCC[C@H]21)S(=O)(=O)c1ccc(N)cc1 [DRV, darunavir]",–,–,–,–,–,–,–,–,–,(100) %,85200 ng·h/mL,6620 ng/mL,–,–,–
"Nc1nc(=O)n([C@@H]2CS[C@H](CO)O2)cc1F [FTC, emtricitabine]",–,–,–,–,–,–,–,–,–,(98) %,11900 ng·h/mL,2050 ng/mL,11700 ng·h/mL,–,"Cmax higher in fasted compared with fed conditions [6]: 26%; AUClast geometric mean ratio (90% CI), fasted (test) vs fed (reference) ([6]; po): 100.12 (96.29-104.10) %; AUCinf geometric mean ratio, test vs reference [7]: 100.13%; AUClast geometric mean ratio, test vs reference [7]: 100.04%; Cmax geometric mean ratio, test vs reference [7]: 99.32%; t1/2term, mean [7]: 17.0 h; t1/2term, mean ([7]; po): 16.5 h"
"CC(C)OC(=O)[C@H](C)N[P@](=O)(CO[C@H](C)Cn1cnc2c(N)ncnc21)Oc1ccccc1 [TAF, tenofovir alafenamide]",0.3 h,20%,80.38^l (73.04-88.45)^ %,89.54 (81.20-98.72) %,182.29 (140.50-236.50) %,0.3 (0.2) hours,125 (57.3) ng · h/mL,107 (65.2) ng/mL,0.5 hours and 0.5 (0.1) hours,–,141 ng·h/mL,120 ng/mL,132 ng·h/mL,339 ng·h/mL,"Tmax ([1]; in vivo): 0.5 h; Tmax ([2]; in vivo): 1.01 h; Lower mean systemic tenofovir exposure than in the TDF group ([8]; Phase II study): greater than 90%; Mean plasma exposure (AUClast) [8, 11]: 130.5 ng·h/mL; Median plasma half-life [8, 11]: 27 min; AUClast, fasted versus fed conditions (90% CI of the GMR within 80% to […]) ([4]; administered as D/C/F/TAF): comparable under both conditions; Cmax higher in fasted compared with fed conditions [4, 9]: 82%; AUClast, mean (SD) ([4]; fasted (test)): 106 (44.7) ng · h/mL"
"CC(C)OC(=O)OCOP(=O)(CO[C@H](C)Cn1cnc2c(N)ncnc21)OCOC(=O)OC(C)C [TDF, tenofovir disoproxil fumarate]",–,–,–,–,–,–,–,–,–,(100) %,–,–,–,3737 ng·h/mL,–
